# According to US10039747B2, “Tetrahydrocyclopentapyrrole derivatives and a method for preparing the same” (Daewoong Pharmaceutical Co., Ltd., priority 2013, dated 2018):
# Target: T1, H+/K+-ATPase (Sus scrofa, UniProt P19156)
# T1 construct: reaction buffer solution (60 mmol/l Tris-HCl buffer solution, pH 7.4) containing hog gastric vesicle; from tissue; host or cells: hog stomach (gastric vesicles, by centrifugation after Rabon et al. 1988)
# Experiment: Inhibition of proton pump (H+/K+-ATPase) activity in hog gastric vesicles
# Format: biochemical
# Details: K+ specific H+/K+-ATPase activity, pH 7.4, 37° C. for 40 minutes, malachite green
# Method: 1) Preparation of Gastric Vesicles
# Gastric vesicles were prepared from hog stomach by centrifugation (Edd C. Rabon et al., Preparation of Gastric H^+,K^+-ATPase, Methods in enzymology, vol. 157 Academic Press Inc., (1988), pp. 649-654). The protein contents of the prepared gastric vesicles were quantified with a Bicinchoninic Acid (BCA) kit.
# 2) Measurement of Effect of Inhibiting Proton Pump (H^+/K^+-ATPase) Activity
# The effect of inhibiting proton pump activity by the compound of the present invention was measured in a 96-well plate. In this experiment, K^+ specific H^+/K^+-ATPase activity was calculated based on the difference between H^+/K^+-ATPase activity in the presence of K^+ ions and H^+/K^+-ATPase activity in the absence of K^+ ions. In the 96-well plate, to negative and positive control groups, 0.5% dimethylsulfoxide (DMSO) in buffer was added, and to the test groups, the compound of the present invention was added. All the analyses were conducted at room temperature with the reaction volume of 100 μl. To a reaction buffer solution (60 mmol/l Tris-HCl buffer solution, pH 7.4) containing hog gastric vesicle, DMSO and each concentration of compound were added, and then, 10 μl of a 10 mmol/l adenosine triphosphate tris buffer solution (60 mmol/l Tris-HCl buffer solution, pH 7.4) was added to initiate an enzyme reaction. The enzyme reaction was conducted at 37° C. for 40 minutes, 50 μl of a malachite green solution (0.12% malachite green solution, 5.8% ammonium molybdate and 11% tween 20 were mixed at a ratio of 100:67:2 in 6.2 N sulfuric acid) was added to stop the reaction, and 50 μl of 15.1% sodium citrate was added. During the reaction, the amount of monophosphate (Pi) was measured at 570 nm using micro plate reader (FLUOstar Omega, BMG Company). Inhibition rate (%) was measured from the activity values of the control groups and the activity values of various concentrations of the test compound, and IC50 of the test compound was calculated from each % inhibition value of the compound using Logistic 4-parameter function of Sigmaplot 8.0 program.
# T1 sequence (P19156 2-1034 limits assumed): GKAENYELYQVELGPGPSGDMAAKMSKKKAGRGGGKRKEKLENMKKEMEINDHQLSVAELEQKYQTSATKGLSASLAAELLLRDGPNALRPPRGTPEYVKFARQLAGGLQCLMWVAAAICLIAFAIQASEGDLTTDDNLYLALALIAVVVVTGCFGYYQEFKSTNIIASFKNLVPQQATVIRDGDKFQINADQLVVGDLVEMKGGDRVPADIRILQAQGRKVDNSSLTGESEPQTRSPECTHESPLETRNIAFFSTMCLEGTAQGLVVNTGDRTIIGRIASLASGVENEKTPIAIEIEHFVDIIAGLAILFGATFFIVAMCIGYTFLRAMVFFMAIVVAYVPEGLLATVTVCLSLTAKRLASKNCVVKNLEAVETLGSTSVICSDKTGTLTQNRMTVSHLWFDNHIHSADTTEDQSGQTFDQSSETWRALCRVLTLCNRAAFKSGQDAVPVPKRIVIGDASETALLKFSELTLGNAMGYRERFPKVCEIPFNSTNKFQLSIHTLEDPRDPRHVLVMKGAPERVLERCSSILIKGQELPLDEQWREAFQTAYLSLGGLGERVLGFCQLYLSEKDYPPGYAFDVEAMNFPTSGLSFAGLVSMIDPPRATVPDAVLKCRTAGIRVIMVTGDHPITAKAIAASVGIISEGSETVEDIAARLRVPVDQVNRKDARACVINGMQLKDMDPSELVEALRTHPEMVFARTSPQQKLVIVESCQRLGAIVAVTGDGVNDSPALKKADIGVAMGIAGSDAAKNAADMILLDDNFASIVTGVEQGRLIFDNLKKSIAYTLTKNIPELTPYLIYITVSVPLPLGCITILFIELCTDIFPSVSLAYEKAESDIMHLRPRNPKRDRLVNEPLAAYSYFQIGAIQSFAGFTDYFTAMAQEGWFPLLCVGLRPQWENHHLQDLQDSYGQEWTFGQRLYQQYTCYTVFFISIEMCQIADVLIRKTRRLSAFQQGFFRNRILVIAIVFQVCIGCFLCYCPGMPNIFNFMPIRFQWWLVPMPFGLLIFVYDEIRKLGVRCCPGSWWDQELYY
# T1 sequence (P18434 whole entry partner): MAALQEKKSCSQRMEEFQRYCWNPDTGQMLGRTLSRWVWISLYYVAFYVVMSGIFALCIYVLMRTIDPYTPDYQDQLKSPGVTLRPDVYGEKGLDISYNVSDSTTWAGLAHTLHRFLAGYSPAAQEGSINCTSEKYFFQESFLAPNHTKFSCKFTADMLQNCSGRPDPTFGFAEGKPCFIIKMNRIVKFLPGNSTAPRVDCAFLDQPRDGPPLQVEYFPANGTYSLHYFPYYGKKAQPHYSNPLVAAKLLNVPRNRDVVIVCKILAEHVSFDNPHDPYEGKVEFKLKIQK
row,Structure (SMILES),IC50
1,"CNC1CCc2c1cn(S(=O)(=O)c1cccc(Cl)c1)c2-c1ccsc1 (centres unmarked) [Example 33, 2-((3-chlorophenyl)sulfonyl)-N-methyl-1-(thiophen-3-yl)-2,4,5,6-tetrahydrocyclopenta[c]pyrrol-4-amine]",0.32 µM
2,"CNC1CCc2c1cn(S(=O)(=O)c1cccc(Cl)c1)c2-c1cscc1C (centres unmarked) [Example 34, 2-((3-chlorophenyl)sulfonyl)-N-methyl-1-(4-methylthiophen-3-yl)-2,4,5,6-tetrahydrocyclopenta[c]pyrrol-4-amine]",0.69 µM
3,"CNC1CCc2c1cn(S(=O)(=O)c1cccc(Cl)c1)c2-c1cc(C)sc1C (centres unmarked) [Example 35, 2-((3-chlorophenyl)sulfonyl)-1-(2,5-dimethylthiophen-3-yl)-N-methyl-2,4,5,6-tetrahydrocyclopenta[c]pyrrol-4-amine]",0.84 µM
4,"CNC1CCc2c1cn(S(=O)(=O)c1cccc(Cl)c1)c2-c1cccc(Cl)n1 (centres unmarked) [Example 36, 2-((3-chlorophenyl)sulfonyl)-1-(6-chloropyridin-2-yl)-N-methyl-2,4,5,6-tetrahydrocyclopenta[c]pyrrol-4-amine]",2.54 µM
5,"CNC1CCc2c1cn(S(=O)(=O)c1cccc(Cl)c1)c2-c1cccnc1 (centres unmarked) [Example 37, 2-((3-chlorophenyl)sulfonyl)-N-methyl-1-(pyridin-3-yl)-2,4,5,6-tetrahydrocyclopenta[c]pyrrol-4-amine]",1.49 µM
6,CNC1CCc2c1cn(S(=O)(=O)c1cccc(Cl)c1)c2-c1cccnc1C(F)(F)F (centres unmarked) [Example 38],5.82 µM
7,CNC1CCc2c1cn(S(=O)(=O)c1cccc(Cl)c1)c2-c1ccc(C(F)(F)F)nc1 (centres unmarked) [Example 39],2.51 µM
8,CNC1CCc2c1cn(S(=O)(=O)c1cccc(Cl)c1)c2-c1ccc(N2CCCC2)nc1 (centres unmarked) [Example 40],7.69 µM
9,"CNC1CCc2c1cn(S(=O)(=O)c1cccc(Cl)c1)c2-c1ccc(N2CCOCC2)nc1 (centres unmarked) [Example 41, 2-((3-chlorophenyl)sulfonyl)-N-methyl-1-(6-morpholinopyridin-3-yl)-2,4,5,6-tetrahydrocyclopenta[c]pyrrol-4-amine]",3.88 µM
10,"CNC1CCc2c1cn(S(=O)(=O)c1cccc(Cl)c1)c2-c1ccncc1 (centres unmarked) [Example 42, 2-((3-chlorophenyl)sulfonyl)-N-methyl-1-(pyridin-4-yl)-2,4,5,6-tetrahydrocyclopenta[c]pyrrol-4-amine]",5.43 µM
11,"CNC1CCc2c1cn(S(=O)(=O)c1cccc(F)c1)c2-c1ccc(C)cc1F (centres unmarked) [Example 47, 1-(2-fluoro-4-methylphenyl)-2-((3-fluorophenyl)sulfonyl)-N-methyl-2,4,5,6-tetrahydrocyclopenta[c]pyrrol-4-amine]",0.47 µM
12,"CNC1CCc2c1cn(S(=O)(=O)c1ccccc1Cl)c2-c1ccc(C)cc1F (centres unmarked) [Example 48, 2-((2-chlorophenyl)sulfonyl)-1-(2-fluoro-4-methylphenyl)-N-methyl-2,4,5,6-tetrahydrocyclopenta[c]pyrrol-4-amine]",1 µM
13,"CNC1CCc2c1cn(S(=O)(=O)c1ccccc1Cl)c2-c1ccc(F)cc1C (centres unmarked) [Example 49, 2-((2-chlorophenyl)sulfonyl)-1-(4-fluoro-2-methylphenyl)-N-methyl-2,4,5,6-tetrahydrocyclopenta[c]pyrrol-4-amine]",2.17 µM
14,"CNC1CCc2c1cn(S(=O)(=O)c1ccccc1Cl)c2-c1cc(Cl)ccc1Cl (centres unmarked) [Example 50, 2-((2-chlorophenyl)sulfonyl)-1-(2,5-dichlorophenyl)-N-methyl-2,4,5,6-tetrahydrocyclopenta[c]pyrrol-4-amine]",1.05 µM
15,"CNC1CCc2c1cn(S(=O)(=O)c1cccc(F)c1)c2-c1cc(Cl)ccc1Cl (centres unmarked) [Example 51, 1-(2,5-dichlorophenyl)-2-((3-fluorophenyl)sulfonyl)-N-methyl-2,4,5,6-tetrahydrocyclopenta[c]pyrrol-4-amine]",0.65 µM
16,"CNC1CCc2c1cn(S(=O)(=O)c1cccc(C)c1)c2-c1cc(Cl)ccc1Cl (centres unmarked) [Example 53, 1-(2,5-dichlorophenyl)-N-methyl-2-(m-tolylsulfonyl)-2,4,5,6-tetrahydrocyclopenta[c]pyrrol-4-amine]",0.77 µM
17,"CNC1CCc2c1cn(S(=O)(=O)c1cccc(OC)c1)c2-c1ccc(C)cc1F (centres unmarked) [Example 54, 1-(2-fluoro-4-methylphenyl)-2-((3-methoxyphenyl)sulfonyl)-N-methyl-2,4,5,6-tetrahydrocyclopenta[c]pyrrol-4-amine]",0.41 µM
18,"CNC1CCc2c1cn(S(=O)(=O)c1cccc(OC)c1)c2-c1cc(Cl)ccc1Cl (centres unmarked) [Example 55, 1-(2,5-dichlorophenyl)-2-((3-methoxyphenyl)sulfonyl)-N-methyl-2,4,5,6-tetrahydrocyclopenta[c]pyrrol-4-amine]",0.59 µM
19,"CNC1CCc2c1cn(S(=O)(=O)c1ccc(F)cc1)c2-c1ccc(C)cc1F (centres unmarked) [Example 60, 1-(2-fluoro-4-methylphenyl)-2-((4-fluorophenyl)sulfonyl)-N-methyl-2,4,5,6-tetrahydrocyclopenta[c]pyrrol-4-amine]",0.42 µM
20,"CNC1CCc2c1cn(S(=O)(=O)c1ccc(F)cc1)c2-c1cc(Cl)ccc1Cl (centres unmarked) [Example 61, 1-(2,5-dichlorophenyl)-2-((4-fluorophenyl)sulfonyl)-N-methyl-2,4,5,6-tetrahydrocyclopenta[c]pyrrol-4-amine]",0.77 µM

# The next lines start with the values.
row,IC50,Structure (SMILES)
1,0.43 µM,"CNC1CCc2c1cn(S(=O)(=O)c1ccccc1)c2-c1ccccc1F (centres unmarked) [Example 43, 1-(2-fluorophenyl)-N-methyl-2-(phenylsulfonyl)-2,4,5,6-tetrahydrocyclopenta[c]pyrrol-4-amine]"
2,0.65 µM,"CNC1CCc2c1cn(S(=O)(=O)c1ccccc1)c2-c1ccc(C)cc1F (centres unmarked) [Example 44, 1-(2-fluoro-4-methylphenyl)-N-methyl-2-(phenylsulfonyl)-2,4,5,6-tetrahydrocyclopenta[c]pyrrol-4-amine]"
3,0.55 µM,"CNC1CCc2c1cn(S(=O)(=O)c1ccccc1)c2-c1cc(Cl)ccc1Cl (centres unmarked) [Example 45, 1-(2,5-dichlorophenyl)-N-methyl-2-(phenylsulfonyl)-2,4,5,6-tetrahydrocyclopenta[c]pyrrol-4-amine]"
4,3.27 µM,"CNC1CCc2c1cn(S(=O)(=O)c1ccccc1OC)c2-c1ccccc1F (centres unmarked) [Example 46, 1-(2-fluorophenyl)-2-((2-methoxyphenyl)sulfonyl)-N-methyl-2,4,5,6-tetrahydrocyclopenta[c]pyrrol-4-amine]"
5,0.35 µM,"CNC1CCc2c1cn(S(=O)(=O)c1cccc(C)c1)c2-c1ccc(C)cc1F (centres unmarked) [Example 52, 1-(2-fluoro-4-methylphenyl)-N-methyl-2-(m-tolylsulfonyl)-2,4,5,6-tetrahydrocyclopenta[c]pyrrol-4-amine]"
6,1.72 µM,"CNC1CCc2c1cn(S(=O)(=O)c1cccc(N(C)C)c1)c2-c1ccccc1F (centres unmarked) [Example 56, 2-((3-(dimethylamino)phenyl)sulfonyl)-1-(2-fluorophenyl)-N-methyl-2,4,5,6-tetrahydrocyclopenta[c]pyrrol-4-amine]"
7,0.42 µM,"CNC1CCc2c1cn(S(=O)(=O)c1cccc(OC(F)F)c1)c2-c1ccccc1F (centres unmarked) [Example 57, 2-((3-(difluoromethoxy)phenyl)sulfonyl)-1-(2-fluorophenyl)-N-methyl-2,4,5,6-tetrahydrocyclopenta[c]pyrrol-4-amine]"
8,5.78 µM,"CNC1CCc2c1cn(S(=O)(=O)c1cccc(C(=O)N3CCOCC3)c1)c2-c1ccccc1F (centres unmarked) [Example 58, (3-((1-(2-fluorophenyl)-4-(methylamino)-5,6-dihydrocyclopenta[c]pyrrol-2(4H)-yl)sulfonyl)phenyl)(morpholino)methanone]"
9,1 µM,"CNC1CCc2c1cn(S(=O)(=O)c1ccc(C)cc1)c2-c1ccccc1F (centres unmarked) [Example 59, 1-(2-fluorophenyl)-N-methyl-2-tosyl-2,4,5,6-tetrahydrocyclopenta[c]pyrrol-4-amine]"
10,8.75 µM,"CNC1CCc2c1cn(S(=O)(=O)c1ccc(-c3ccccc3)cc1)c2-c1ccccc1F (centres unmarked) [Example 62, 2-([1,1′-biphenyl]-4-ylsulfonyl)-1-(2-fluorophenyl)-N-methyl-2,4,5,6-tetrahydrocyclopenta[c]pyrrol-4-amine]"
11,0.61 µM,"CNC1CCc2c1cn(S(=O)(=O)c1cccc(Cl)c1C)c2-c1ccccc1F (centres unmarked) [Example 63, 2-((3-chloro-2-methylphenyl)sulfonyl)-1-(2-fluorophenyl)-N-methyl-2,4,5,6-tetrahydrocyclopenta[c]pyrrol-4-amine]"
12,0.84 µM,"CNC1CCc2c1cn(S(=O)(=O)c1cccc(Cl)c1Cl)c2-c1ccccc1F (centres unmarked) [Example 64, 2-((2,3-dichlorophenyl)sulfonyl)-1-(2-fluorophenyl)-N-methyl-2,4,5,6-tetrahydrocyclopenta[c]pyrrol-4-amine]"
